Measured values as given in US20110124574A1, “RESTORATION OF ESTROGEN RECEPTOR-(ALPHA) ACTIVITY” (priority 2008, published 2011).
Where no end group is shown, it is not given here. The star is where a group is joined. For = O=C*

Legend:
Format in all cases: cell-based, human
ERα = ERα protein expression by Western blot in stimulated MDA-MB-468 cells; conditions: stimulation for 24 and 48 hours
Method: Breast cancer cells were grown in 6 well plates, and stimulated with recombinant Wnt-5a protein (rW5a), the Wnt-5a derived Foxy-5 peptide (F5), recombinant Wnt-3a protein (rW3a), or a formylated random hexapeptide (Rdm) for 24 or 48 h. Following treatment cells were lysed and subjected to SDS-PAGE, transferred to nitrocellulose membranes and blotted for ERα expression. A: MDA-MB-231 cells stimulated with recombinant Wnt-5a, Foxy-5, Wnt-3a, Rdm. B: MDA-MB-468 cells stimulated with recombinant Wnt-5a or Foxy-5. C: 4T1 cells stimulated with recombinant Wnt-5a or Foxy-5. Positive controls (Pos) were included in order to confirm the correct band size for ERα. Two different positive controls were used: T47D cell lysates known to express ERα and MDA-MB-231 cells transiently transfected with a full length ERα plasmid, resulting in extremely high ERα expression (top row, right panel, third row, right panel). […]
Cells were lysed in Triton lysis buffer (50 mM Tris (pH7.5), 1% Triton x-100, 140 mM NaCl, 0.5 mM EDTA, 0.5 MgCl2, 10 mM NaF) with the addition of fresh leupeptin (1 μg/ml), Pefabloc (2 mM), aprotinin (20 μg/ml) and Na3VO4 (4 mM). […] Scanning and densitometry was performed using a Bio-Rad (Hercules Calif.) GS-800 densitometer with Quantity One software. […]

MDA-MB-231 cells = assay: Nuclear (Hoechst) staining for apoptotic cells after tamoxifen; conditions: MDA-MB-231, stimulation 24 and 48 hours, tamoxifen 5 μM for the last 20 hours
Method: (§1) MDA-MB-231 cells were grown in 6 well plates and stimulated with recombinant Wnt-5a protein (rW5a) or the Wnt-5a derived Foxy-5 peptide (F5), for 24 or 48 h. Cells were treated with tamoxifen for the final 20 h and their apoptotic responses were measured via different methods. […] Arrows highlight apoptotic cells. Bars represent […]. B: Following treatment with rW5a, F5 and tamoxifen, or tamoxifen alone, cells were lysed and subjected to SDS-PAGE, transferred to nitrocellulose membranes and blotted for cleaved caspase 3. C: Treated cells were assessed for their relative caspase 3 activity using fluorometric spectrophotometry. The graph represents 6 separate experiments. * P<0.01, ** P<0.001. D: MTT assays were also performed on MDA-MB-231 cells treated with rWnt-5a, F5 and tamoxifen, or tamoxifen alone (MDA-MB-231 and MCF-7 cells) to assess cell growth inhibition. The graph represents the average of 6 separate experiments, with standard deviation represented by error bars. ** P<0.01, *** P<0.001.
MDA-MB-231 cells were plated on cover slips and allowed to adhere. Wnt-5a (0.6 μg/ml) or Foxy-5 (100 μM) were added for 24 or 48 hours. Cells were then treated with tamoxifen (5 μM) for the last 20 hours. MCF-7 cells were used as a positive control. […] The morphology was analyzed with Nikon E800 Eclipse Microscope with 60× objective.

Caspase 3 = Caspase 3 activity assay (fluorometric, DEVD-amc); conditions: MDA-MB-231, stimulation plus tamoxifen 1 μM 20 hours; compared to untreated cells or tamoxifen alone
Method: as §1
Caspase 3 activity was determined via fluorescent spectrometry. The fluorogenic peptide DEVD-amc (Upstate Biotech) was used as a substrate. […] Reactions were incubated at 37° C. for 1 h and analysed on a FLUOstar plate reader (BMG Lab technologies). The total protein content of each lysates was measured using the Coomassie Plus Protein Assay and read outs averaged and adjusted accordingly. […]

Row | Molecule | ERα levels (ERα) | apoptotic cells by Hoechst staining in response to tamoxifen (MDA-MB-231 cells) | increase of degree of apoptosis (caspase-3 activity) (Caspase 3)
1 | formyl-MDGCEL (For-MDGCEL; listed as Homo sapiens) [Foxy-5] | upregulated | apoptotic cells displaying altered nuclear morphology | three
2 | recombinant Wnt-5a: recombinant Wnt-5a protein (R&D Systems) (protein, UniProt P41221 62-380, looked up) Protein Wnt-5a: IIGAQPLCSQLAGLSQGQKKLCHLYQDHMQYIGEGAKTGIKECQYQFRHRRWNCSTVDNTSVFGRVMQIGSRETAFTYAVSAAGVVNAMSRACREGELSTCGCSRAARPKDLPRDWLWGGCGDNIDYGYRFAKEFVDARERERIHAKGSYESARILMNLHNNEAGRRTVYNLADVACKCHGVSGSCSLKTCWLQLADFRKVGDALKEKYDSAAAMRLNSRGKLVQVNSRFNSPTTQDLVYIDPSPDYCVRNESTGSLGTQGRLCNKTSEGMDGCELMCCGRGYDQFKTVQTERCHCKFHWCCYVKCKKCTEIVDQFVCK | upregulated | apoptotic cells displaying altered nuclear morphology | two
